Experimental data reported in patent publication US20110178064A1, “SPIRO CONDENSED […] DERIVATIVES FOR USE AS ANTIBACTERIAL” (A[…]&D, priority 2007, published 2011).
Values after ≈ are worked out from the molar mass of the structure shown. Like-named read-outs stand apart in the source and are kept apart here.

Columns and labels:
[1] = target: Escherichia coli DNA gyrase A/B tetramer (Escherichia coli, UniProt P0AES4+P0AES6); test: DNA gyrase supercoiling activity fluorescence polarisation assay; type: biochemical
Escherichia coli DNA gyrase A/B tetramer, sequence (P0AES4 whole entry, one chain of several): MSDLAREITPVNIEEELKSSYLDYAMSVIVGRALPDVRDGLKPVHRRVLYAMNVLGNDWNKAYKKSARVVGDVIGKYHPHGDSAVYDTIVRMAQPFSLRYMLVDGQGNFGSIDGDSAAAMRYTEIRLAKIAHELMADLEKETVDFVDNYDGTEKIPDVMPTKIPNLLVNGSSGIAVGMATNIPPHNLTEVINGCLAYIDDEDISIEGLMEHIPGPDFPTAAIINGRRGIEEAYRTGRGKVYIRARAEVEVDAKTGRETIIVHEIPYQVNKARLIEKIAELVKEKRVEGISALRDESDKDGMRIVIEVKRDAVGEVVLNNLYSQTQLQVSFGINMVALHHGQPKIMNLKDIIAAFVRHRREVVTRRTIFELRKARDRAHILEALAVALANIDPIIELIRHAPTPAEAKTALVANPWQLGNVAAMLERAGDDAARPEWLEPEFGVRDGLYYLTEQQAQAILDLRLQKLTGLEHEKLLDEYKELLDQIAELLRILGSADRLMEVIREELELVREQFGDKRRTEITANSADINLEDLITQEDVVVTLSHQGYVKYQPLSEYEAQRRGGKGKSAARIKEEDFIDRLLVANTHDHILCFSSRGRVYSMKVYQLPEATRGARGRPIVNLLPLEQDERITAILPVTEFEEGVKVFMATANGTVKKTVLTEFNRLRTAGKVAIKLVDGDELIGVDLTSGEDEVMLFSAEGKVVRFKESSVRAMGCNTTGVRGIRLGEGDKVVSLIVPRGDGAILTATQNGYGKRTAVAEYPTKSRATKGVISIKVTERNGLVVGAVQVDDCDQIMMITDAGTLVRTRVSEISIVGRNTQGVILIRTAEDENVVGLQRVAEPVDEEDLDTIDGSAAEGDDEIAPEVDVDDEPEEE
Outline: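 Gyrase supercoiling reactions quenched with 40 nM 5′-BODIPY-FL oligodeoxynucleotide triplex probe in pH 3.5 NaCl/sodium acetate buffer; fluorescence anisotropy read after 60 min (485/535 nm).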

Hin737 = test: Bacterial susceptibility testing (MIC) in liquid media, 96 well format; type: cell-based; conditions: Haemophilus influenzae
Description: (§1) Compounds may be tested for antimicrobial activity by susceptibility testing in liquid media in a 96 well format. Compounds may be dissolved in dimethylsulfoxide and tested in 10 doubling dilutions in the susceptibility assays. The organisms used in the assay may be grown overnight on suitable agar media and then suspended in a liquid medium appropriate for the growth of the organism. The suspension may be a 0.5 McFarland and a further 1 in 10 dilution may be advantageously made into the same liquid medium to prepare the final organism suspension in 100 μL. Plates may be incubated under appropriate conditions at 37° C. for 24 hours prior to reading. […] Compounds may be evaluated against organisms such as Gram-positive species, including Staphylococcus aureus, Streptococcus pneumoniae, Streptococcus pyogenes, and Enterococcus faecium; and Gram-negative species including Haemophilus influenzae, Escherichia coli and Moraxella catarrhalis.

Hin158 = test: as above; type: cell-based; conditions: Haemophilus influenzae
Description: as §1

Hin446 = test: as above; type: cell-based; conditions: Haemophilus influenzae
Description: as §1

Eco524 = test: as above; type: cell-based; conditions: Escherichia coli
Description: as §1

Sau517 = test: as above; type: cell-based; conditions: Staphylococcus aureus
Description: as §1

Mca445 = test: as above; type: cell-based; conditions: Moraxella catarrhalis
Description: as §1

[2] = E. coli DNA gyrase supercoiling, asterisk: no IC50 obtained at or below the indicated concentration, read-out: IC50

Compound | IC50 [1] [µM] | IC50 [1, 2] [µM] | other results
C[C@@H]1CN2c3ncccc3CC3(C(=O)NC(=O)NC3=O)[C@H]2[C@H](C)O1 (relative stereo) [Example 18, (6aS,7S,9R)-rel-7,9-Dimethyl-6a,7,9,10-tetrahydro-1′H,5H-spiro[[1,4]oxazino[4,3-a][1,8]naphthyridine-6,5′-pyrimidine]-2′,4′,6′(3′H)-trione] | 51 |  | MIC (Hin737): 32 µg/mL (≈ 96.9 µM); MIC (Hin158): 8 µg/mL (≈ 24.2 µM); MIC (Hin446): 16 µg/mL (≈ 48.4 µM); MIC (Eco524): 32 µg/mL (≈ 96.9 µM)
C[C@@H]1CN2c3ccc(Br)nc3CC3(C(=O)NC(=O)NC3=O)[C@H]2[C@H](C)O1 (relative stereo) [Example 19, (2R,4S,4aS)-rel-8-Bromo-2,4-dimethyl-2,4,4a,6-tetrahydro-1H,1′H-spiro[[1,4]oxazino[4,3-a][1,5]naphthyridine-5,5′-pyrimidine]-2′,4′,6′(3′H)-trione] | 11 |  | MIC (Sau517): 32 µg/mL (≈ 78.2 µM); MIC (Hin737): 16 µg/mL (≈ 39.1 µM); MIC (Hin158): 1 µg/mL (≈ 2.44 µM); MIC (Mca445): 8 µg/mL (≈ 19.5 µM); MIC (Hin446): 4 µg/mL (≈ 9.77 µM); MIC (Eco524): 2 µg/mL (≈ 4.89 µM)
C[C@H]1C[C@@H](C)[C@H]2N(C1)c1c(ccnc1Cl)CC21C(=O)NC(=O)NC1=O [Example 13, (6aR,7R,9S)-1-chloro-7,9-dimethyl-5,6a,7,8,9,10-hexahydro-1′H-spiro[pyrido[1,2-a][1,7]naphthyridine-6,5′-pyrimidine]-2′,4′,6′(3′H)-trione] | 25 |  | 
Cc1nnc(-c2cc3c(nc2F)N2C[C@@H](C)C[C@@H](C)[C@@H]2C2(C3)C(=O)NC(=O)NC2=O)s1 [Example 17, (6aR,7R,9S)-2-Fluoro-7,9-dimethyl-3-(5-methyl-1,3,4-thiadiazol-2-yl)-5,6a,7,8,9,10-hexahydro-1′H-spiro[pyrido[1,2-a][1,8]naphthyridine-6,5′-pyrimidine]-2′,4′,6′(3′H)-trione] | 6 |  | 
CC1CN2c3ncc(-c4nccs4)cc3CC3(C(=O)NC(=O)NC3=O)C2C(C)O1 [Example 25, (6aS,7S,9R)-rel-7,9-Dimethyl-3-(1,3-thiazol-2-yl)-6a., 7,9,10-tetrahydro-2′H,5H-spiro[1,4-oxazino[4,3-a][1,8]naphthyridine-6,5′-pyrimidine]-2′,4′,6′(1′H,3′H)-trione] |  | 9 | 
CC1CN2c3ncc(-c4ccnn4C)cc3CC3(C(=O)NC(=O)NC3=O)C2C(C)O1 [Example 41, (6aS,7S,9R)-rel-7,9-Dimethyl-3-(1-methyl-1H-pyrazol-5-yl)-6a., 7,9,10-tetrahydro-2′H,5H-spiro[1,4-oxazino[4,3-a][1,8]naphthyridine-6,5′-pyrimidine]-2′,4′,6′(1′H,3′H)-trione] |  | 5 | 
CC1CN2c3ncc(-c4cn[nH]c4)cc3CC3(C(=O)NC(=O)NC3=O)C2C(C)O1 [Example 44, (6aS,7S,9R)-rel-7,9-Dimethyl-3-(1H-pyrazol-4-yl)-6a., 7,9,10-tetrahydro-2′H,5H-spiro[1,4-oxazino[4,3-a][1,8]naphthyridine-6,5′-pyrimidine]-2′,4′,6′(1′H,3′H)-trione] |  | > 10 | 
C[C@H]1C[C@@H](C)[C@H]2N(C1)c1cnc(-c3ccn[nH]3)cc1CC21C(=O)NC(=O)NC1=O [Example 117, (6aR,7R,9S)-7,9-Dimethyl-3-(1H-pyrazol-5-yl)-5,6a,7,8,9,10-hexahydro-1′H-spiro[pyrido[1,2-a][1,7]naphthyridine-6,5′-pyrimidine]-2′,4′,6′(3′H)-trione] | 1 |  | 
(2R,4S,4aS)-rel-2,4-Dimethyl-8-(1H-pyrazol-4-yl)-1,2,4,4a-tetrahydro-2′H,6H-spiro[1,4-oxazino[4,3-a][1,5]naphthyridine-5,5′-pyrimidine]-2′,4′,6′(1′H,3′H)-trione [Example 72] |  | > 5 | 
(6aS,7S,9R)-rel-3-(6-Methoxypyrazin-2-yl)-7,9-dimethyl-6a,7,9,10-tetrahydro-2′H,5H-spiro[1,4-oxazino[4,3-a][1,7]naphthyridine-6,5′-pyrimidine]-2′,4′,6′(1′H,3′H)-trione [Example 105] |  | 19 | 
